Test results published in US20230234920A1, “Azirine Containing Compounds as Anti-Angiogenesis Agents and a Process for the Preparation Thereof” (COUNCIL OF SCIENTIFIC & INDUSTRIAL RESEARCH, priority 2020, published 2023).
One block for each molecule: values may come before it.

Key:
Endothelin-1 receptor = test: Endothelin-1 induced contraction of isolated artery rings; design: species or system mice; settings: all concentrations of ET-1
Excerpt: FIG. 15 represents effect of Compound 1 on endothelin-1 concentration-response curves. (A) Concentration-response curve of endothelin-1 in isolated carotid arteries of vehicle-treated (Control) and Compound 1 treated mice. (B) Concentration-response curve of endothelin-1 in isolated carotid arteries of vehicle-treated (Control) and compound 3 along with compound 8 treated mice.
To test for the selectivity of the putative Endothelin-1 receptor, we applied endothelin-1 or Compound 1 in a concentration dependent manner to the […] to observe its contraction inhibition activity (FIG. 15).

HUVECs [1] = test: Capillary-like tube formation assay (tubulogenesis); assay type: cell-based, human; settings: for tubule formation: 6 h
Experimental: FIG. 2 represents effect of Compound 1 on capillary tube formation of HUVECs. Endothelial cells in Matrigel were incubated with ECM basal medium in the presence of compound 1 at the indicated concentrations for 6 h. Cell viability was assessed by Calcein-AM dye added few min. before the completion of 6 h. then photographs at 10×magnification were taken using an inverted microscope. The tubule length of HUVECs was quantified by Leica QWin software. Tubule network formation is expressed as a percentage of that vehicle (0.1% DMSO) treated cells (control).
FIG. 9 represents effect of racemic mixture (chiral isomer 1-1 and chiral isomer 2-1) of Compound 1 on capillary tube formation of HUVECs. Endothelial cells seeded in matrigel were incubated at the indicated concentrations of compound 1 racemic mixtures (1-1 and 2-1) with ECM basal medium for 6 h. Calcein-AM treatment was added to the ECs few minutes before completion of 6 h and pictures were captured using an inverted microscope at 10×magnification. The tubular structures of HUVECs were measured using Leica QWin software and tubulogenesis was expressed as a % of that vehicle (0.1% DMSO) treated cells (control) well.
HUVEC cells were incubated with or without sunitinib (20 nM) for 6 h at indicated concentrations of chiral isomers of Compound 1 (1-1 and 2-1). Photographs were taken using an inverted microscope at 10×magnification after Calcein-AM treatment to the ECs few minutes before completion of 6 h. The tubule length of HUVECs was quantified by Leica QWin software represented as a % of that vehicle (0.1% DMSO) treated cells (control) well.
To examine the effect of Compound 1 on angiogenesis, capillary tube formation assay was performed on regular or reduced growth factor Matrigel, taking VEGF (50 ng/mL) treated cells as a positive control and sunitinib (50 nM) as a negative control (FIG. 2). HUVECs seeded onto the matrigel with compound 1 at different concentrations of (10 μM, 5 μM, 1 μM, 800 nM, 500 nM, 250 nM, 125 nM, 75 nM, 50 nM, 25 nM and 10 nM) were incubated for six hours.
HUVECs (Human Umbilical Vein Endothelial Cells) were seeded onto the pre-coated matrigel (CORNING; 354230) in 96 wells plate at the rate of 11000 cells/well in incomplete ECM basal medium. Control group received vehicle, VEGF at 50 ng/mL as a positive and sunitinib at 50 nM as a negative control were used. Compound 1 at different dose concentrations (10 μM, 5 μM, 1 μM, 800 nM, 500 nM, 250 nM, 100 nM, 75 nM, 50 nM and 25 nM) were employed on seeded HUVECs in incomplete medium. Post 6 h of incubation Calcein-AM (Invitrogen) was added to all the respective groups and then the tubule pattern was observed and photographs were taken using an inverted fluorescent microscope (DM 6000, Leica Microsystems, USA). Relative tubule lengths were measured using Leica Q-Win software version 3.5.1. (Leica Microsystems, Switzerland).

[2] = Intramuscular pharmacokinetic study of chiral isomers 1 and 2; assay type: in vivo, male Sprague Dawley (SD) rats; settings: IM 20 mg/kg
Experimental: In vivo pharmacokinetic study was performed in male Sprague Dawley (SD) rats (n=4). Intramuscular (IM) formulation of compound 1 Chiral 1 and 2 were prepared by individually dissolving accurately weighed quantity of compound 1, chiral isomers 1 and 2 (20 mg) in 1 mL of olive oil followed by vortexing for 2 min and sterilize through syringe filter. Blood samples were collected from the retro orbital plexus of rats under light ether anesthesia into microfuge tubes containing heparin as an anti-coagulant at 0.25, 0.5, 1, 3, 5, 7, 9, 24, 30, 48 and 72 hours post-dosing after intramuscular dose. Plasma sample was harvested by centrifuging the blood at 13000 rpm for 10 min on Sigma 1-15 K (Frankfurt, Germany) and stored frozen at −70±10° C. until bioanalysis. Each plasma sample (100 μl) was processed using protein precipitation method using 200 μl acetonitrile containing medicarpine as internal standard (I.S.) as protein precipitant, and 10 μl of the supernatant was injected for LC-MS/MS.

[3] = Intramuscular pharmacokinetic study of bulk compound 1 and chiral isomers; assay type: in vivo, male Sprague Dawley (SD) rats; settings: IM 20 mg/kg
Experimental: In vivo pharmacokinetic study was performed in male Sprague Dawley (SD) rats (n=4). Intramuscular (IM) formulation of bulk of compound 1 as well as chiral isomer-1 and chiral isomer-2 was prepared by dissolving accurately weighed quantity of compound 1 (20 mg) in 1 mL of olive oil followed by vortexing for 2 min and sterilize through syringe filter. Blood samples were collected from the retro orbital plexus of rats under light ether anesthesia into microfuge tubes containing heparin as an anti-coagulant at 0.25, 0.5, 1, 3, 5, 7, 9, 24, 30, 48 and 72 hours post-dosing after intramuscular dose. Plasma sample was harvested by centrifuging the blood at 13000 rpm for 10 min on Sigma 1-15 K (Frankfurt, Germany) and stored frozen at −70±10° C. until bioanalysis. Each plasma sample (100 μl) was processed using protein precipitation method using 200 μl acetonitrile containing medicarpine as internal standard (I.S.) as protein precipitant, and 10 μl of the supernatant was injected for LC-MS/MS.

HUVECs [4] = test: Wound healing (scratch) migration assay; assay type: cell-based, human; settings: 50 ng/mL, positive control
Experimental: FIG. 4 represents In vitro wound closure assay showing effect of Compound 1 migration of HUVECs. (A) ECs were incubated with 2.5% FBS in the presence of VEGF, sunitinib and Compound 1 at the indicated concentrations for 24 h after linear scratched wounds were created in the confluent cells. Post treatment photographs were taken at 0 hr, 12 h and 24 h using an inverted microscope at 10×magnification. (B) Data were quantified using Image J software and graphs were plotted by calculating the % migration of that vehicle treated cells (control). Compound 1 inhibits the wound closure by ECs in a dose dependent manner. The values represent the mean±SEM from (n=3) independent experiments with significant difference compared from control at *p<0.05.
As per previous reports, some anti-angiogenic compounds also show anti-migratory effect by modulating the expression of proteins responsible for blood vessels formation. A Scratch was made to the confluent endothelial cells containing VEGF (50 ng/mL) and sunitinib (50 nM) as a positive and negative control respectively and Compound 1 at 250 nM and 125 nM as a test compound. […] This might contribute to its potent anti-angiogenic effect.
Endothelial cells were grown inside 6-well plate at a confluency rate of 90%. And then with the help of 200 μL tip a straight line scratch was made in the middle of the grown ECs. After giving a gentle wash with 1×PBS, control group received vehicle in 2.5% FBS media. VEGF at 50 ng/mL as a positive control and sunitinib at 50 nM concentration was used as a negative control. Compound 1 at a dose concentration of 250 nM and 125 nM were used onto the wounded cells to observe its anti-migratory effect. After 0 h, 12 h and 24 h of post treatment the wound closure area was observed and micrographed using an inverted microscope (Olympus, Centre Valley, Pa., USA) and were analysed by Image J software. Control well at 100% was used to express inhibition percentage and the assay was performed for three-five times independently.

effect on ET-1 induced contraction of aortic rings (Endothelin-1 receptor): no effect
Molecule: CCCCCCCCCCCCC1=NC1C(=O)OCC (centres unmarked) [Compound 3, Ethyl 3-dodecyl-2H-azirine-2-carboxylate]
IC50 value (HUVECs [1]; endothelial tubule network assay, result in words): Not Active

effect on ET-1 induced contraction of aortic rings (Endothelin-1 receptor): no effect
Molecule: CCOC(=O)C1N=C1CCc1ccc(Cl)cc1 (centres unmarked) [Compound 8, Ethyl 3-(4-chlorophenethyl)-2H-azirine-2-carboxylate]
IC50 (HUVECs [1]; Homo sapiens, HUVEC, endothelial tubule network assay, anti-angiogenic activity, read-out: IC50 value): 500 nM

Tmax [2]: 3 h | Plasma concentration ([2]; 0.25 h): 6640 ± 2170 ng/mL | Plasma concentration ([2]; 0.5 h): 7440 ± 400 ng/mL | Plasma concentration ([2]; 1 h): 9270 ± 1960 ng/mL | Plasma concentration ([2]; 3 h): 10820 ± 1130 ng/mL | Plasma concentration ([2]; 5 h): 7500 ± 560 ng/mL | Plasma concentration ([2]; 7 h): 4300 ± 620 ng/mL | Plasma concentration ([2]; 9 h): 2000 ± 660 ng/mL | Plasma concentration ([2]; 24 h): 180 ± 13 ng/mL | Plasma concentration ([2]; 30 h): 130 ± 15 ng/mL | Plasma concentration ([2]; 48 h): 76 ± 4 ng/mL | Plasma concentration ([2]; 72 h): 44 ± 6 ng/mL | AUC0-72 ([2]; mean ± S.D., n = 4): 84900 ± 6020 ng·h/mL | AUC0-∞ ([2]; mean ± S.D., n = 4): 85480 ± 6100 ng·h/mL | Cl ([2]; mean ± S.D., n = 4): 3.83 ± 0.17 mL/min/kg | Cmax ([2]; mean ± S.D., n = 4): 10820 ± 1130 ng/mL | Vd ([2]; mean ± S.D., n = 4): 3.9 ± 0.24 L/kg | t1/2 ([2]; mean ± S.D., n = 4): 9.14 ± 0.12 h | Plasma concentration ([3]; 0.25 h): 409 ± 150 ng/mL | Plasma concentration ([3]; 0.5 h): 767.6 ± 50 ng/mL | Plasma concentration ([3]; 1 h): 557 ± 260 ng/mL | Plasma concentration ([3]; 3 h): 745 ± 120 ng/mL | Plasma concentration ([3]; 5 h): 762 ± 340 ng/mL | Plasma concentration ([3]; 7 h): 536 ± 170 ng/mL | Plasma concentration ([3]; 9 h): 463 ± 370 ng/mL | Plasma concentration ([3]; 24 h): 323 ± 40 ng/mL | Plasma concentration ([3]; 30 h): 246 ± 120 ng/mL | Plasma concentration ([3]; 48 h): 169.3 ± 100 ng/mL | Plasma concentration ([3]; 72 h): 44.3 ± 6 ng/mL | AUC0-72 ([3]; mean ± S.D., n = 4): 19540 ± 3260 ng·h/mL | AUC0-∞ ([3]; mean ± S.D., n = 4): 20644 ± 2977 ng·h/mL | Cl ([3]; mean ± S.D., n = 4): 16.4 ± 2.17 mL/min/kg | Cmax ([3]; mean ± S.D., n = 4): 945 ± 143 ng/mL | Tmax ([3]; mean ± S.D., n = 4): 3 ± 2 h | Vd ([3]; mean ± S.D., n = 4): 24.497 ± 6.339 L/kg | t1/2 ([3]; mean ± S.D., n = 4): 17.11 ± 2.454 h | MRT ([3]; mean ± S.D., n = 4, in h (unit assumed)): 22.671 ± 4.539
Molecule: CCOC(=O)[C@H]1N=C1CCc1ccc(OC)cc1 [chiral isomer (2-1)]
tubule formation (HUVECs [1]; 100 nM combined with sunitinib at 20 nM): around 30% | tubule formation (HUVECs [1]; 250 nM): 100% | tubule formation (HUVECs [1]; 500 nM): 50% | tubule formation (HUVECs [1]; 500 nM, listed as isomer (2-1)): 50% | tubule formation (HUVECs [1]; 1 μM): 50%

Molecule: VEGF [reference compound]
wound closure (HUVECs [4]): 90%
